According to US8466259B2, “Adjuvants” (National Health Research Institutes, priority 2007, dated 2013):

Assays:
[1] = test system: TC-1 cells (expressed HPVE7 cells); experiment: TC-1 tumor growth inhibition, E7-derived peptide RAH with Pam3 or lipo-Nter (Example 7); assay type: in vivo, mouse; conditions: mice with TC-1 tumors, immunized once subcutaneously at day 7, combined with 20 μg E7-derived peptide RAH
Procedure: Six mice (6-8 weeks old) were inoculated with 2×10^5 TC-1 cells (expressed HPVE7 cells) at day 0. After 7 days, mice were immunized once subcutaneously with 20 μg of E7-derived peptide in the presence of tripamitoylated peptide Pam3 or lipo-Nter. The tumor size was monitored every 2-3 days until tumor volumes higher than 3000 mm^3. The tumor volumes were calculated based on the formula length×width×width/2.

[2] = test system: TC-1 cells (expressed HPVE7 cells); experiment: TC-1 tumor growth inhibition, rE7m with or without lipo-Nter (Example 6); assay type: in vivo, mouse; conditions: mice with TC-1 tumors, immunized once subcutaneously at day 7, combined with 20 μg rE7m
Procedure: In this example, assays were conducted to examiner whether the lipo-Nter combined with rE7m can increase the tumor growth inhibition ability. Six mice (6-8 weeks old) were inoculated with 2×10^5 TC-1 cells (expressed HPVE7 cells) at day 0. After 7 days, mice were immunized once subcutaneously with 20 μg of rE7m with or without lipo-Nter. The tumor size was monitored every 2-3 days until tumor volumes higher than 3000 mm^3. The tumor volumes were calculated based on the formula length×width×width/2.

rE7m = experiment: Anti-E7m IgG ELISA after immunization of mice with rE7m with or without lipo-Nter (Example 5); assay type: in vivo, mouse; conditions: subcutaneous, combined with 20 μg rE7m, two immunizations at two-week intervals
Procedure: Five mice (6-8 weeks old) were immunized subcutaneously with 20 μg of rE7m with or without lipo-Nter. The mice were given two immunizations at two-week intervals. Blood was collected from each mouse at different time points as indicated. Sera were prepared and stored at −80° C. until use. The level of anti-E7m IgG in the serum samples was determined by titrating the samples in 96-well plates coated with purified rE7m. Bound IgG was detected with horseradish peroxidase-conjugated goat anti-mouse IgG Fc. After the addition of TMB, the absorbance was measured with an ELISA reader at 450 nm.

TLR2 = target: T1, TLR2 (Homo sapiens, UniProt O60603); experiment: NF-kB luciferase reporter assay in TLR2-transfected HEK293 cells; assay type: cell-based
T1 construct: FLAG; host or cells: HEK293
Procedure: HEK293 cells were plated onto 24-well plates (2×10^5 cells/well) and cotransfected with 0.1 μg of pFLAG-TLR2, 0.01 μg of pNF-kB-luc, and 0.01 μg of the pRL-TK internal control plasmid (Promega, Madison, Wis.) using lipofectamine 2000 (Invitrogen, Carlsbad, Calif.). After 24 h, the transfected cells were stimulated with various synthetic lipopeptide or recombinant proteins for 24 h. The cells were lysed so that the luciferase activity could be measured using a dual-luciferase reporter assay system (Promega Co., Madison, Wis.). Firefly-luciferase activities were related to Renilla-luciferase activities for the purposes of normalization. Both firefly and Renilla luciferase activities were monitored using a Berthold Orion II luminometer (Pforzheim, Germany).

[3] = test system: bone marrow-derived dendritic cells; experiment: lipo-Nter stimulation of BM-DCs, cytokine ELISA (Example 4); assay type: cell-based, mouse; conditions: lipo-Nter 100 nM
Procedure: BM-DCs were harvested as previously described (Lutz et al., 1999). Briefly, femurs and tibiae of 6-8 week old female mice were removed, and the bone marrow cells were dispersed by vigorous pipetting. After removing red blood cells with lysis buffer, the isolated bone marrow cells were resuspended to a density of 2−5×10^5/ml cells with RPMI-10: RPMI-1640 (GIBCO BRL, Grand Island, N.Y.) supplemented with 10% P/S, L-glutamine (2 mM, Sigma), 2-mercaptoethanol (50 μM, Sigma), and 10% heat-inactivated FBS. On days 0, 3, and 6, bone marrow cells were added to Petri dishes containing 200 U/mL (20 ng/ml) of recombinant mouse granulocyte macrophage colony stimulating factor (MoGM-CSF, Peprotech, Rocky Hill, N.J.) in RPMI-10. At day 6, either LPS (0.01 μg/ml), lipo-Nter (100 nM) was added. Generally, immature dendritic cells made up 70% of the total cell population. The production of cytokines by BM-DCs was determined using ELISA. Briefly, 100 μL of anti-cytokine (10 μg/ml of IL-12p40, TNF-α) antibodies (R&D system Inc. Minneapolis, Minn.) were coated onto 96-well microtiter plates with 0.1 M carbonate buffer, pH 9.6, following overnight incubation at 4° C. […] The plates were read at 450 nm using an ELISA plate reader (Molecular Devices, CA). The production levels of the cytokines were calculated by subtracting the values obtained for non-stimulated groups.

BM-DCs = experiment: Real-time quantitative PCR of cytokine/chemokine gene expression in BM-DCs; assay type: cell-based, mouse; conditions: 100 nM, 2 or 4 hours
Procedure: The BM-DCs were purified using the Dynabeads® Mouse DC Enrichment Kit (Invitrogen Dynal AS, Oslo, Norway) according to the manufacturer's instructions to 60 90%. The purified BM-DCs were stimulated using medium alone, or with 100 nM of Pam3, BPPcysPEG or rlipo-D1E3, at 37° C. for 2 or 4 hours. Total RNA was extracted from the isolated cells using the RNeasy mini kit (Qiagen, Valencia, Calif.) following the manufacturer's instructions. RNA (0.5-1 μg) was reverse-transcribed to cDNA using an oligo-dT primer in a 20 μl volume and SuperScript III RT (Invitrogen, Carlsbad, Calif.). The mouse Universal Probe Library (UPL) set (Roche, Mannheim, Germany) was used to perform the real-time qPCR assay for gene expression in isolated cell populations (Liu et al. (2007) J Leukoc Biol 82, 354-360.).
The reaction mixture contained 5 ng cDNA, 0.2 μM primers, and LightCycler 480 Probe Master (Roche), and the reagents were reacted in a LightCycler 480 system (Roche). All qPCRs were carried out using an initial denaturation step at 95° C. for 10 min, followed by 45 cycles of 95° C. for 10 s, 60° C. for 20 s, and 72° C. for 2 s. Target gene expression was normalization to HPRT gene expression. The relative gene expression levels were calculated by comparing the expression levels after treatment with various stimulators to those obtained using medium alone. […]

[4] = test system: p38, ERK1/2 and JNK1/2 in BM-DCs; experiment: Western blot analysis of p38, ERK1/2, JNK1/2 phosphorylation in BM-DCs; assay type: cell-based, mouse; conditions: 100 nM
Procedure: The BM-DCs were grown in DMEM or RPMI medium without FBS for 16-18 h and then stimulated with 100 nM of the indicated lipopeptides or lipoprotein for 10, 20, 40, 60, 90, or 120 minutes at 37° C. These treated BM-DCs were then lysed in 25 mM HEPES, 150 mM NaCl, 1 mM EDTA, 1 mM EGTA, 10% glycerol, 1% Triton X-100, 10 mM sodium pyrophosphate, 20 mM b-glycerophosphate, Na3VO4, 10 mM NaF, […], and 1 mM PMSF. The concentration of the protein lysates was determined using the BCA protein assay kit (Pierce, Rockford, Ill.). Fifty microgram of lysates were electrophoresed per lane of a 10% SDS-PAGE gel. After the resolved lysates in the gel were transferred to a PVDF membrane, the membranes were blocked with 5% milk and 0.05% Tween-20. The membranes were incubated with antibodies against p38, pp38, pERK1/2, or pJNK1/2 in 5% w/v BSA, 1×PBS and 0.1% Tween-20. Anti-p38 antibody was used as a control for the protein loading level in each lane. The membrane was developed using the LumiGLO® Chemiluminescent Substrate system (Millipore, Billerica, Mass.). The total p38 level was used for normalization, and the induction of pp38 was determined using image analysis software (Image J1.41, NIH, Bethesda, Md.). Relative phosphorylation was calculated as the (density of pp38/density of p38)×100.

T1 sequence (O60603 21-784): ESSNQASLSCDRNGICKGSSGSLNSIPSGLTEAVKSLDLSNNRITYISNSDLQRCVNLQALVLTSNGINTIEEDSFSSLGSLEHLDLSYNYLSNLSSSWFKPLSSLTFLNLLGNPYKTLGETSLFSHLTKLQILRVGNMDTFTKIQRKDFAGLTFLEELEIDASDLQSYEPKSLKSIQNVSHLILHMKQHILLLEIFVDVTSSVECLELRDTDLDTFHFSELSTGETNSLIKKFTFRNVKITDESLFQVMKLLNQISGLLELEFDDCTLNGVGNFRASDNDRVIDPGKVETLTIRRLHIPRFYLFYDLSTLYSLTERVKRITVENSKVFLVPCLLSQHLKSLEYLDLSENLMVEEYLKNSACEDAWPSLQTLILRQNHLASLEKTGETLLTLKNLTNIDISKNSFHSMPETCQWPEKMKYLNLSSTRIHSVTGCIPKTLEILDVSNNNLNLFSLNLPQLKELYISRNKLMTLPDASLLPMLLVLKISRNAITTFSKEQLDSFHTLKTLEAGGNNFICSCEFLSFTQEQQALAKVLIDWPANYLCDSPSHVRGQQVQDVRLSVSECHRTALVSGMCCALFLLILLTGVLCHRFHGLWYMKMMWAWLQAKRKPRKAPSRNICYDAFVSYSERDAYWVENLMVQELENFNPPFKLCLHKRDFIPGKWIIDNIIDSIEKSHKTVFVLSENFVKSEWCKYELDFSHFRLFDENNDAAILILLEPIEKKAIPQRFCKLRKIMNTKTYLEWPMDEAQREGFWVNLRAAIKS

Substance	tumor growth inhibition (tumor volume) [1]	anti-tumor activity (tumor volume) [2]	anti-E7 antibody (anti-E7m IgG in serum) (rE7m)	activation of NF-κB signaling through TLR2 (TLR2; purified lipo-Nter)	secretion of TNF-α and IL-12p40 [3]	IL-10, TGFβ and CXCL1 expression levels (BM-DCs; compared among Pam3, BPPcysPEG and rlipo-D1E3)	expression levels of IL-13 (BM-DCs; compared to Pam3)	NF-κB signaling activities (TLR2; at 0.1 or 1 nM concentration, compared among Pam3, rlipo-D1E3 and BPPcysPEG)	dose response of TLR2-dependent NF-κB activation (TLR2; range from 1 μM to 100 nM)	time after which phosphorylation dropped down to basal levels [4] [min]	level of the phosphorylation of p38, ERK1/2, JNK1/2 ([4]; compared with Pam3 and rlipo-D1E3)	time of highest induced level of phosphorylation of p38, ERK1/2 and JNK1/2 ([4]; measured 0-120 min) [min]
N-acyl-S-diacylglyceryl-CSQEAK [lipo-Nter]	could inhibit tumor growth	anti-tumor activity stronger than that of rE7m alone	enhanced anti-E7 antibody	activate NF-κB signaling through TLR2	stimulated bone marrow-derived dendritic cells to secrete TNF-α and IL-12p40							
S-[2,3-bispalmitoyloxy-[2R]-propyl-[R]-cysteinyl-amido polyethyleneglycol [BPPcysPEG]						similar	higher expression levels	highest NF-κB signaling activities	stronger activation of TLR2	60	higher level	10
